Test results from the supplement of paper PMC5908809.

Experiments:
IMC-1 (IL-2 20 ng/mL) [1] = assay: percent inhibition of viability; higher = more inhibition; conditions: 72 h
[2] = tested on: normal primary NK cells, pool 3 (3 donors) (IL-2 2.5 ng/mL); assay: as above; conditions: 72 h
[3] = tested on: normal primary NK cells, pool 1 (3 donors) (IL-2 2.5 ng/mL); assay: as above; conditions: 72 h
KHYG-1 (IL-2 2.5 ng/mL) [4] = assay: as above; conditions: 72 h
NK-YS (IL-2 2.5 ng/mL) [5] = assay: as above; conditions: 72 h
[6] = tested on: normal primary NK cells, pool 1 (3 donors), resting (IL-2 0 ng/mL); assay: as above; conditions: 72 h
YT (IL-2 2.5 ng/mL) [7] = assay: as above; conditions: 72 h
NKL (IL-2 2.5 ng/mL) [8] = assay: as above; conditions: 72 h
NK-92 (IL-2 2.5 ng/mL) [9] = assay: as above; conditions: 72 h
SNK-6 (IL-2 2.5 ng/mL) [10] = assay: as above; conditions: 72 h
DERL-7 (IL-2 2.5 ng/mL) [11] = assay: as above; conditions: 72 h
[12] = tested on: normal primary NK cells, pool 2 (3 donors) (IL-2 2.5 ng/mL); assay: as above; conditions: 72 h
KAI3 (IL-2 2.5 ng/mL) [13] = assay: as above; conditions: 72 h
[14] = tested on: normal NK cells expanded with K562-aAPC; assay: as above; conditions: 72 h, IL-2 2.5 ng/mL
Protocol: (§1)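 Drug sensitivity and resistance testing on K562-aAPC-expanded normal NK cells: 5 concentrations (10-fold steps over a 10,000-fold range), 72 h at 37 °C, viability by CellTiter-Glo normalised to DMSO and benzethonium chloride controls; DSS from the fitted curve.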

[15] = tested on: normal NK cells expanded with K562-aAPC; assay: drug sensitivity score (DSS) (DSS units); higher = more sensitive; extreme values may be limits of the assay; conditions: 72 h; IL-2 2.5 ng/mL
Protocol: as §1

IMC-1 (IL-2 20 ng/mL) [16] = assay: as above; conditions: 72 h
[17] = tested on: normal primary NK cells, pool 3 (3 donors) (IL-2 2.5 ng/mL); assay: as above; conditions: 72 h
[18] = tested on: normal primary NK cells, pool 1 (3 donors) (IL-2 2.5 ng/mL); assay: as above; conditions: 72 h
KHYG-1 (IL-2 2.5 ng/mL) [19] = assay: as above; conditions: 72 h
NK-YS (IL-2 2.5 ng/mL) [20] = assay: as above; conditions: 72 h
[21] = tested on: normal primary NK cells, pool 1 (3 donors), resting (IL-2 0 ng/mL); assay: as above; conditions: 72 h
YT (IL-2 2.5 ng/mL) [22] = assay: as above; conditions: 72 h
NKL (IL-2 2.5 ng/mL) [23] = assay: as above; conditions: 72 h
NK-92 (IL-2 2.5 ng/mL) [24] = assay: as above; conditions: 72 h
SNK-6 (IL-2 2.5 ng/mL) [25] = assay: as above; conditions: 72 h
DERL-7 (IL-2 2.5 ng/mL) [26] = assay: as above; conditions: 72 h
[27] = tested on: normal primary NK cells, pool 2 (3 donors) (IL-2 2.5 ng/mL); assay: as above; conditions: 72 h
KAI3 (IL-2 2.5 ng/mL) [28] = assay: as above; conditions: 72 h

CCS(=O)(=O)N1CC(CC#N)(n2cc(-c3ncnc4[nH]ccc34)cn2)C1 [Baricitinib] (max concentration tested 2500 nM)
percent inhibition of viability [%]
Conditions | 0.25 nM | 2.5 nM | 25 nM | 250 nM | 2500 nM
DERL-7 (IL-2 2.5 ng/mL) [11] | 2.21 | 8.22 | 35.1 | 77.5 | 101
IMC-1 (IL-2 20 ng/mL) [1] | -4.87 | -4.53 | -11.2 | 16.2 | 87.2
KAI3 (IL-2 2.5 ng/mL) [13] | 4.12 | 13.4 | 55.5 | 95.9 | 99.2
KHYG-1 (IL-2 2.5 ng/mL) [4] | -8.72 | 1.48 | 46.9 | 106 | 109
NK-92 (IL-2 2.5 ng/mL) [9] | -7.1 | -0.82 | 23.4 | 68 | 97.8
NK-YS (IL-2 2.5 ng/mL) [5] | -8.38 | -2.38 | 20.7 | 60.4 | 74.6
NKL (IL-2 2.5 ng/mL) [8] | 6.63 | 24.6 | 64.2 | 84.6 | 103
SNK-6 (IL-2 2.5 ng/mL) [10] | -16.6 | -24.9 | 5.7 | 64.8 | 68.9
YT (IL-2 2.5 ng/mL) [7] | -5.41 | -0.41 | 7.96 | 54.3 | 86.4
[2] | 2.14 | -2.13 | 9.5 | 48.8 | 70.4
[3] | -7.54 | 2.7 | 26.4 | 61.7 | 74.2
[6] | 0.1 | 4.62 | 4.85 | 2.89 | 12.1
[12] | -1.68 | 0.38 | 17.6 | 60.4 | 68.1
[14] | 0.8 | 2.05 | 31 | 89.9 | 99.7

Conditions | drug sensitivity score
DERL-7 (IL-2 2.5 ng/mL) [26] | 19
IMC-1 (IL-2 20 ng/mL) [16] | 7.47
KAI3 (IL-2 2.5 ng/mL) [28] | 24.6
KHYG-1 (IL-2 2.5 ng/mL) [19] | 23.9
NK-92 (IL-2 2.5 ng/mL) [24] | 15.6
NK-YS (IL-2 2.5 ng/mL) [20] | 13.7
NKL (IL-2 2.5 ng/mL) [23] | 26.3
SNK-6 (IL-2 2.5 ng/mL) [25] | 12.8
YT (IL-2 2.5 ng/mL) [22] | 11.6
[15] | 20.2
[17] | 10.4
[18] | 14.7
[21] | 0
[27] | 13.3

C[C@@H]1C[C@H]2O[C@@H]2/C=C\C=C\C(=O)Cc2c(Cl)c(O)cc(O)c2C(=O)O1 [Radicicol] (max concentration tested 10000 nM)
percent inhibition of viability [%]
Conditions | 1 nM | 10 nM | 100 nM | 1000 nM | 10000 nM
DERL-7 (IL-2 2.5 ng/mL) [11] | -0.88 | 14.3 | 79.4 | 100 | 101
IMC-1 (IL-2 20 ng/mL) [1] | -2.78 | 3.67 | 0.43 | 101 | 101
KAI3 (IL-2 2.5 ng/mL) [13] | 1.19 | 9.86 | 58.6 | 99.8 | 94.4
KHYG-1 (IL-2 2.5 ng/mL) [4] | 0.9 | 2.76 | 13.1 | 101 | 110
NK-92 (IL-2 2.5 ng/mL) [9] | -1.96 | -4.16 | 34.1 | 99.2 | 104
NK-YS (IL-2 2.5 ng/mL) [5] | 3.72 | 7.15 | 24.6 | 93.4 | 99.7
NKL (IL-2 2.5 ng/mL) [8] | -1.4 | 4.63 | 30.1 | 85.8 | 81.6
SNK-6 (IL-2 2.5 ng/mL) [10] | 8 | 13.2 | 49.9 | 96.8 | 78.6
YT (IL-2 2.5 ng/mL) [7] | -1.95 | 7.65 | 16.1 | 64.4 | 91.6
[2] | -8.94 | -10.4 | 38 | 82.1 | 91.5
[3] | 5.96 | -3.33 | 44.2 | 80.8 | 94.1
[6] | 9.89 | -3.46 | 22.4 | 41.1 | 75.4
[12] | -13.3 | -1.53 | 60.7 | 82 | 91.3
[14] | -4.44 | 1.88 | 51 | 98.6 | 80.6

Conditions | drug sensitivity score
DERL-7 (IL-2 2.5 ng/mL) [26] | 28.9
IMC-1 (IL-2 20 ng/mL) [16] | 18.1
KAI3 (IL-2 2.5 ng/mL) [28] | 25.1
KHYG-1 (IL-2 2.5 ng/mL) [19] | 20.2
NK-92 (IL-2 2.5 ng/mL) [24] | 22.8
NK-YS (IL-2 2.5 ng/mL) [20] | 20
NKL (IL-2 2.5 ng/mL) [23] | 19.4
SNK-6 (IL-2 2.5 ng/mL) [25] | 23.3
YT (IL-2 2.5 ng/mL) [22] | 14.2
[15] | 23.9
[17] | 20.5
[18] | 20.8
[21] | 10.6
[27] | 23.6

O=C(Nc1cccc(Cl)c1)Nc1ncc(CCNc2ncnc3ccsc23)s1 [SNS-314] (max concentration tested 1000 nM)
percent inhibition of viability [%]
Conditions | 0.1 nM | 1 nM | 10 nM | 100 nM | 1000 nM
DERL-7 (IL-2 2.5 ng/mL) [11] | -2.96 | -1.43 | 3.21 | 69.3 | 58.4
IMC-1 (IL-2 20 ng/mL) [1] | -9.62 | -5.56 | 14.2 | 10.2 | 70.4
KAI3 (IL-2 2.5 ng/mL) [13] | -2.71 | -1.61 | 20.4 | 30.6 | 47.3
KHYG-1 (IL-2 2.5 ng/mL) [4] | -7.32 | -4.71 | 35.4 | 53.6 | 68
NK-92 (IL-2 2.5 ng/mL) [9] | -4.05 | -1.72 | 20.3 | 45.2 | 83.4
NK-YS (IL-2 2.5 ng/mL) [5] | -8.15 | -3.63 | -0.24 | 70.4 | 75.2
NKL (IL-2 2.5 ng/mL) [8] | -9.51 | -8.35 | 6.03 | 23.5 | 42.8
SNK-6 (IL-2 2.5 ng/mL) [10] | -12.7 | -23.7 | 33.2 | 59.5 | 70
YT (IL-2 2.5 ng/mL) [7] | -4.76 | -1.46 | 7.82 | 19 | 37.3
[2] | -5.85 | 0.22 | 7.29 | 3.37 | 8.78
[3] | 1.31 | 16.9 | 9.79 | 4.5 | 10.9
[6] | 3.09 | 19.6 | 8.47 | 17.5 | 20.9
[12] | -8.39 | 1.8 | 4.68 | 5.41 | 5.48
[14] | -6.43 | -10 | 4.3 | 43.3 | 42.2

Conditions | drug sensitivity score
DERL-7 (IL-2 2.5 ng/mL) [26] | 13.1
IMC-1 (IL-2 20 ng/mL) [16] | 5.61
KAI3 (IL-2 2.5 ng/mL) [28] | 7.77
KHYG-1 (IL-2 2.5 ng/mL) [19] | 15
NK-92 (IL-2 2.5 ng/mL) [24] | 11.2
NK-YS (IL-2 2.5 ng/mL) [20] | 13
NKL (IL-2 2.5 ng/mL) [23] | 4.85
SNK-6 (IL-2 2.5 ng/mL) [25] | 17.1
YT (IL-2 2.5 ng/mL) [22] | 3.89
[15] | 8.52
[17] | 0
[18] | 0
[21] | 3.41
[27] | 0
